Laboratory results published in patent publication US11129909B2, “Conjugate and block copolymer containing fluorescent chromophore and preparation method therefor and use thereof” (priority 2017, dated 2021).

Experiments:
NQO1 = NQO1 (Homo sapiens, UniProt P15559); assay: Enzyme detection by antibody-probe conjugate: fluorescence/FRET change with NADPH/NQO1; type: biochemical; details: NADPH/NQO1 in water system, culture time of about 1 h; NAM emission 530 nm vs C1 emission 435 nm
Procedure: In a culture time of about 1 h, a change of about 20 times the FRET ratio (intensity ratio of two emission peaks) can be seen (see inset). The above results indicated the occurrence of an efficient FRET process between the C1 coumarin linkage bond and the enzymatic-produced NAM residue.

[1] = system: LS180 cells (normal CEA and lacking NQO1); assay: CLSM detection of intracellular CEA and quinone oxidoreductase, LS180 cells; type: cell-based; details: LS180 cells co-cultured with conjugate
Excerpt: (§1) Viable HepG2 cells (lacking CEA and NQO1), LS180 cells (normal CEA and lacking NQO1) and HT29 cells (normal CEA and normal NQO1) were co-cultured with QNAM-C1-ACEA antibody-probe conjugate.

[2] = system: HT29 cells (normal CEA and normal NQO1); assay: CLSM detection of intracellular CEA and quinone oxidoreductase, HT29 cells; type: cell-based; details: HT29 cells co-cultured with conjugate
Excerpt: as §1

[3] = system: HepG2 cells (lacking CEA and NQO1); assay: CLSM detection of intracellular CEA and quinone oxidoreductase, HepG2 cells; type: cell-based; details: HepG2 cells co-cultured with conjugate
Excerpt: as §1

Chain of NQO1 (P15559 whole entry, species assumed): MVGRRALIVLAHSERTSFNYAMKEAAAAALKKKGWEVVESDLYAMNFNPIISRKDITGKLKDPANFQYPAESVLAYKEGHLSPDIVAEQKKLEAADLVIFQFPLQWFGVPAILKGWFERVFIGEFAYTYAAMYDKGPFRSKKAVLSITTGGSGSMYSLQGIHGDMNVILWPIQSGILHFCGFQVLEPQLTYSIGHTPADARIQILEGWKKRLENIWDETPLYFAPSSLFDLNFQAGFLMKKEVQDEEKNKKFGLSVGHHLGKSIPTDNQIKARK

COC(=O)CC(SC)C(=O)Nc1cc2ccc(-c3cn(CCN4C(=O)c5cccc6c(NC(=O)CC(C)(C)C7=C(C)C(=O)C(C)=C(C)C7=O)ccc(c56)C4=O)nn3)cc2oc1=O (stereo not shown) [QNAM-C1-ACEA]
change of the FRET ratio (intensity ratio of two emission peaks) (NQO1): about 20 times | CLSM emission of C1 coumarin (blue) and NAM (green) in cells [1]: intermittent blue luminous points of C1 coumarin and few NAM green emission signals | CLSM emission of C1 coumarin (blue) and NAM (green) in cells [2]: green channel NAM emission was obviously enhanced | CLSM emission of C1 coumarin (blue) and NAM (green) in cells [3]: very low blue and green emission
